Data: PubChem BioAssay (NCI)
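A five-concentration, 48-hour dose response in 96-well plates underlies each endpoint, interpolated linearly between surrounding concentrations. GI50 = concentration required for 50% inhibition of growth. TGI is the concentration that stops growth completely.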

How the values were obtained:
Test in all cases: inhibition of tumour cell growth, NCI panel, 48 h
DU-145 prostate = tested on: DU-145 prostate
MDA-MB-231 breast = tested on: MDA-MB-231 breast
MDA-MB-435 = tested on: MDA-MB-435
NCI/ADR-RES ovarian = tested on: NCI/ADR-RES ovarian
PC-3 prostate = tested on: PC-3 prostate
T-47D breast = tested on: T-47D breast

CCOc1ccccc1N=Nc1c(C)[nH]n(-c2nc(-c3ccccc3)cs2)c1=O
GI50 (DU-145 prostate): 53.2 µM | TGI (DU-145 prostate): > 100 µM | GI50 (MDA-MB-231 breast): 44 µM | TGI (MDA-MB-231 breast): > 100 µM | GI50 (MDA-MB-435): > 100 µM | TGI (MDA-MB-435): > 100 µM | GI50 (NCI/ADR-RES ovarian): 37.6 µM | TGI (NCI/ADR-RES ovarian): > 100 µM | GI50 (PC-3 prostate): 34.7 µM | TGI (PC-3 prostate): > 100 µM | GI50 (T-47D breast): 30.1 µM | TGI (T-47D breast): > 100 µM

CC1=C(CO)C(=O)O[C@@H]([C@@H](C)[C@H]2CC[C@H]3[C@@H]4C[C@@H](O)[C@@]5(O)CC=CC(=O)[C@]5(C)[C@H]4CC[C@]23C)C1
TGI (DU-145 prostate): > 100 µM | TGI (MDA-MB-231 breast): > 100 µM | TGI (MDA-MB-435): > 100 µM | TGI (NCI/ADR-RES ovarian): 64.2 µM | TGI (PC-3 prostate): > 100 µM | TGI (T-47D breast): > 100 µM

O=C(Nc1cccc(NC(=O)Nc2cc(C(F)(F)F)ccc2Cl)c1)Nc1cc(C(F)(F)F)ccc1Cl
GI50 (DU-145 prostate): 4.11 µM | TGI (DU-145 prostate): 17.8 µM | GI50 (MDA-MB-231 breast): 2.3 µM | TGI (MDA-MB-231 breast): 22 µM | GI50 (MDA-MB-435): 5.56 µM | TGI (MDA-MB-435): > 100 µM | GI50 (NCI/ADR-RES ovarian): 3.01 µM | TGI (NCI/ADR-RES ovarian): 17.7 µM | GI50 (PC-3 prostate): 1.4 µM | TGI (PC-3 prostate): 8.23 µM | GI50 (T-47D breast): 0.407 µM | TGI (T-47D breast): 11.4 µM

C[C@]12CC[C@H]3[C@@H](CC[C@]4(O)C[C@@H](O)CC[C@]34/C=N/O)[C@@]1(O)CC[C@@H]2C1=COC(=O)C1
TGI (DU-145 prostate): 0.111 µM | TGI (MDA-MB-435): 0.623 µM | TGI (NCI/ADR-RES ovarian): 0.604 µM | TGI (PC-3 prostate): 0.532 µM | TGI (T-47D breast): 0.975 µM

Cc1ccc(CNc2c3ccccc3nc3cc(NC(=O)CCN4CCCC4)ccc23)cc1
GI50 (DU-145 prostate): 0.516 µM | TGI (DU-145 prostate): 1.66 µM | GI50 (MDA-MB-231 breast): 0.602 µM | TGI (MDA-MB-231 breast): 1.98 µM | GI50 (MDA-MB-435): 1.33 µM | TGI (MDA-MB-435): 2.62 µM | GI50 (NCI/ADR-RES ovarian): 4.02 µM | TGI (NCI/ADR-RES ovarian): 24.2 µM | GI50 (PC-3 prostate): 0.515 µM | TGI (PC-3 prostate): 1.83 µM | GI50 (T-47D breast): 0.751 µM | TGI (T-47D breast): 3.02 µM

COc1ccc(C2SC(C)C(=O)N2NC(=O)C(O)c2ccccc2)cc1OC (centres undefined)
GI50 (DU-145 prostate): > 100 µM | TGI (DU-145 prostate): > 100 µM | GI50 (MDA-MB-231 breast): > 100 µM | TGI (MDA-MB-231 breast): > 100 µM | GI50 (MDA-MB-435): > 100 µM | TGI (MDA-MB-435): > 100 µM | GI50 (NCI/ADR-RES ovarian): > 100 µM | TGI (NCI/ADR-RES ovarian): > 100 µM | GI50 (PC-3 prostate): > 100 µM | TGI (PC-3 prostate): > 100 µM | GI50 (T-47D breast): > 100 µM | TGI (T-47D breast): > 100 µM

O=C(NN1C(=O)CSC12CCCC2)c1[nH]c2ccc(Br)cc2c1-c1ccccc1
GI50 (DU-145 prostate): > 100 µM | TGI (DU-145 prostate): > 100 µM | GI50 (MDA-MB-231 breast): 32.5 µM | TGI (MDA-MB-231 breast): > 100 µM | GI50 (MDA-MB-435): 23.4 µM | TGI (MDA-MB-435): 63.7 µM | GI50 (PC-3 prostate): 38.6 µM | TGI (PC-3 prostate): > 100 µM | GI50 (T-47D breast): 39.1 µM | TGI (T-47D breast): > 100 µM

COc1cc([C@H]2OC[C@H]3[C@@H]2CO[C@@H]3c2cc(OC)c3c(c2)OCO3)cc(OC)c1OC
TGI (DU-145 prostate): > 100 µM | TGI (MDA-MB-231 breast): > 100 µM | TGI (MDA-MB-435): > 100 µM | TGI (NCI/ADR-RES ovarian): > 100 µM | TGI (PC-3 prostate): > 100 µM | TGI (T-47D breast): > 100 µM

C[CH2][Sn]([CH2]C)([O]C(=O)C(OC(C)=O)c1ccccc1)[O]C(=O)C(OC(C)=O)c1ccccc1 (centres undefined)
GI50 (DU-145 prostate): 94.7 µM | TGI (DU-145 prostate): > 100 µM | GI50 (MDA-MB-231 breast): 26.6 µM | TGI (MDA-MB-231 breast): 77.8 µM | GI50 (MDA-MB-435): > 100 µM | TGI (MDA-MB-435): > 100 µM | GI50 (NCI/ADR-RES ovarian): > 100 µM | TGI (NCI/ADR-RES ovarian): > 100 µM | GI50 (PC-3 prostate): > 100 µM | TGI (PC-3 prostate): > 100 µM | GI50 (T-47D breast): 12.9 µM | TGI (T-47D breast): 28 µM

CC1(C)[C@@H](OC(N)=O)[C@H]2O[C@H]2[C@]2(CO)[C@H]3CC[C@]4(C)[C@@H](c5ccc(=O)oc5)[C@@H](Cl)C[C@]4(O)C3=CC[C@@H]12
GI50 (DU-145 prostate): 0.00509 µM | TGI (DU-145 prostate): 0.0106 µM | GI50 (MDA-MB-231 breast): 0.0283 µM | TGI (MDA-MB-231 breast): 0.103 µM | GI50 (MDA-MB-435): 0.0101 µM | TGI (MDA-MB-435): 0.0386 µM | GI50 (NCI/ADR-RES ovarian): 0.00672 µM | TGI (NCI/ADR-RES ovarian): 0.0174 µM | GI50 (PC-3 prostate): 0.00803 µM | TGI (PC-3 prostate): 0.0275 µM | GI50 (T-47D breast): 0.0076 µM | TGI (T-47D breast): 0.0333 µM
